What was measured:
FGFR3 = target: T1, FGFR3 (Homo sapiens, UniProt P22607); assay: FGFR3 kinase activity inhibition assay (LanthaScreen TR-FRET); type: biochemical; details: for IC50: FGFR3 kinase, TR-FRET, read-out: IC50 (nM) FGFR3; for Selectivity (X) FGFR1/FGFR3: ratio of IC50 FGFR1/FGFR3, selectivity towards FGFR3
T1 construct: FGFR3's cytoplasmic domain [436-806 (terminal) amino acids]; purchased Carna 08-135
Procedure, shortened: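 Read-out is TR-FRET, with the 520 nm/495 nm emission ratio normalised to DMSO (max) and enzyme-free (min) controls. Enzyme was the FGFR3 cytoplasmic domain, residues 436-806. EDTA (10 mM) stopped the reaction, followed by 60 min at 22 °C before reading.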

FGFR1 = target: T2, FGFR1 (Homo sapiens, UniProt P11362); assay: FGFR1 kinase activity inhibition assay (LanthaScreen TR-FRET); type: biochemical; details: FGFR1 kinase, TR-FRET; read-out: IC50 (nM) FGFR1
T2 construct: cytoplasmic domain [398-822 (terminal) amino acids]; purchased Carna 08-133
T2 sequence (P11362 398-822): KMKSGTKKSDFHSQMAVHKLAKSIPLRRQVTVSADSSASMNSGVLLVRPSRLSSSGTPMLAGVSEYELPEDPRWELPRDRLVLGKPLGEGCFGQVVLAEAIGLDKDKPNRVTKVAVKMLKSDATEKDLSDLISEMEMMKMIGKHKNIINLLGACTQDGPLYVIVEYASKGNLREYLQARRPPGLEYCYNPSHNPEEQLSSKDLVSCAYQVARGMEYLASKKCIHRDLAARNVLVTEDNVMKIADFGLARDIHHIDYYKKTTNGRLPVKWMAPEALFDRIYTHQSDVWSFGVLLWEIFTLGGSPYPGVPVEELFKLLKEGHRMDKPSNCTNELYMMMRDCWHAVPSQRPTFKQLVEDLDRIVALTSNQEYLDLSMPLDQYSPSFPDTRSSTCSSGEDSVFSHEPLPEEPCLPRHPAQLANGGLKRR
Procedure, shortened: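 Emission ratio 520 nm/495 nm by TR-FRET after stopping reaction with 10 mM EDTA and 60 min incubation at 22°C. Inhibition normalized between no-enzyme (min) and DMSO (max) controls, then fitted to a four-parameter curve (Top, Bottom, HillSlope).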

T1 sequence (P22607 436-806): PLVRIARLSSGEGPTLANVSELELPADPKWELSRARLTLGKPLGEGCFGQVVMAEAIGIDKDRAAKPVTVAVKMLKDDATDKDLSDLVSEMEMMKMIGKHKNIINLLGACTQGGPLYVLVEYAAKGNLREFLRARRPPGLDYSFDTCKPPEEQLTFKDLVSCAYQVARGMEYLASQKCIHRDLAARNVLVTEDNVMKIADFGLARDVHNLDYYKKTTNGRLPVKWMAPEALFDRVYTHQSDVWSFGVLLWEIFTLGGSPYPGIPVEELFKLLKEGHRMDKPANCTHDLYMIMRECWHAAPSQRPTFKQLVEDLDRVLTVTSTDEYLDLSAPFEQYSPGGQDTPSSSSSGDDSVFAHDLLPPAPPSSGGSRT

SMILES	IC50 (FGFR3)	Selectivity (X) FGFR1/FGFR3 (FGFR3)	IC50 (FGFR1)	Selectivity (X) FGFR4/FGFR3 (FGFR3; ratio of IC50 FGFR4/FGFR3, selectivity towards FGFR3)
CC(Oc1ccc2[nH]nc(-c3cnn(C)c3)c2c1)c1nccn2nccc12 (stereo not shown) [Example 176, 4-(1-((3-(1-methyl-1H-pyrazol-4-yl)-1H-indazol-5-yl)oxy)ethyl)py razolo[1,5-a]pyrazine]	1 to 10 nM	A (A represents 1 ≤ multiple X<20)	10 to 100 nM	–
CC(Oc1ccc2[nH]nc(-c3cnn(C4CN(C(=N)N)C4)c3)c2c1)c1cccc2nccnc12 (stereo not shown) [Example 177, 3-(4-(5-(1-(quinoxalin-5-yl)ethoxy)-1H-indazol-3-yl)-1H-pyrazol-1-yl)azetidine-1-carboximidamide]	1 to 10 nM	B (B represents 20 ≤ multiple X<50)	10 to 100 nM	–
CC(Oc1ccc2[nH]nc(-c3cnn(C4CN(C(=O)CC#N)C4)c3)c2c1)c1cccc2nccnc12 (stereo not shown) [Example 180, 3-oxo-3-(3-(4-(5-(1-(quinoxalin-5-yl)ethoxy)-1H-indazol-3-yl)-1H-pyrazol-1-yl)azetidin-1-yl)propionitrile]	1 to 10 nM	A (A represents 1 ≤ multiple X<20)	1 to 10 nM	–
CC(Oc1ccc2[nH]nc(-c3cnn(C4CC(N(C)C(=O)C(C)(C)O)C4)c3)c2c1)c1cccc2nccnc12 (stereo not shown) [Example 197, 2-hydroxy-N,2-dimethyl-N-(3-(4-(5-(1-(quinoxalin-5-yl)ethoxy)-1H-indazol-3-yl)-1H-pyrazol-1-yl)cyclobutyl)prop anamide]	< 1 nM	B (B represents 20 ≤ multiple X<50)	10 to 100 nM	–
CC(Oc1ccc2[nH]nc(-c3cnn(C4CC(N(C)S(C)(=O)=O)C4)c3)c2c1)c1cccc2nccnc12 (stereo not shown) [Example 198, N-methyl-N-(3-(4-(5-(1-(quinoxalin-5-yl)ethoxy)-1H-indazol-3-yl)-1H-pyrazol-1-yl)cyclobutyl)methanesulfonamide]	< 1 nM	B (B represents 20 ≤ multiple X<50)	10 to 100 nM	–
CC(=O)N(C)C1CC(n2cc(-c3n[nH]c4ccc(OC(C)c5cccc6nccnc56)cc34)cn2)C1 (stereo not shown) [Example 199, N-methyl-N-(3-(4-(5-(1-(quinoxalin-5-yl)ethoxy)-1H-indazol-3-yl)-1H-pyrazol-1-yl)cyclobutyl)acet amide]	< 1 nM	A (A represents 1 ≤ multiple X<20)	10 to 100 nM	–
CC(Oc1ccc2[nH]nc(-c3cnn(CC4CC(=O)N(C)C4)c3)c2c1)c1cccc2nccnc12 (stereo not shown) [Example 200, 1-methyl-4-((4-(5-(1-(quinoxalin-5-yl)ethoxy)-1H-indazol-3-yl)-1H-pyrazol-1-yl)methyl)pyrrolidin-2-one]	1 to 10 nM	B (B represents 20 ≤ multiple X<50)	10 to 100 nM	–
CC(Oc1ccc2[nH]nc(-c3cnn(C4CN(C(=O)NC5CC5)C4)c3)c2c1)c1cccc2nccnc12 (stereo not shown) [Example 201, N-cyclopropyl-3-(4-(5-(1-(quinoxalin-5-yl)ethoxy)-1H-indazol-3-yl)-1H-pyrazol-1-yl)azetidine-1-carboxamide]	< 1 nM	A (A represents 1 ≤ multiple X<20)	1 to 10 nM	–
CC(Oc1ccc2[nH]nc(-c3cnn(C4CC(S(C)(=N)=O)C4)c3)c2c1)c1cccc2nccnc12 (stereo not shown) [Example 202, imino(methyl)(3-(4-(5-(1-(quinoxalin-5-yl)ethoxy)-1H-indazol-3-yl)-1H-pyrazol-1-yl)cyclobutyl)-sulfanone]	< 1 nM	A (A represents 1 ≤ multiple X<20)	1 to 10 nM	–
CC(Oc1ccc2[nH]nc(-c3cnn(C4CN(C(=O)C5(N)CC5)C4)c3)c2c1)c1cccc2nccnc12 (stereo not shown) [Example 205, (1-aminocyclopropy 1)(3-(4-(5-(1-(quinoxalin-5-yl)ethoxy)-1H-indazol-3-yl)-1H-pyrazol-1-yl)azetidin-1-yl)methanone]	< 1 nM	B (B represents 20 ≤ multiple X<50)	1 to 10 nM	–
CC(Oc1ccc2[nH]nc(-c3cnn(C4CN(C(=O)C(C)(C)O)C4)c3)c2c1)c1cc(Cl)cc2ncccc12 (stereo not shown) [Example 206, 1-(3-(4-(5-(1-(7-chloroquinolin-5-yl)ethoxy)-1H-indazol-3-yl)-1H-pyrazol-1-yl)azetidin-1-yl)-2-hydroxy-2-methylpropan-1-one]	1 to 10 nM	C (C represents 50 ≤ multiple X<100)	10 to 100 nM	–
CC(Oc1ccc2[nH]nc(-c3cnn(C4CN(C(=O)CO)C4)c3)c2c1)c1cc(Cl)cc2nccnc12 (stereo not shown) [Example 207, 1-(3-(4-(5-(1-(7-chloroquinoxalin-5-yl)ethoxy)-1H-indazol-3-yl)-1H-pyrazol-1-yl)azetidin-1-yl)-2-hydroxyethan-1-one]	< 1 nM	B (B represents 20 ≤ multiple X<50)	10 to 100 nM	–

The remaining lines, values ahead:

IC50 (FGFR3)	Selectivity (X) FGFR1/FGFR3 (FGFR3)	IC50 (FGFR1)	Selectivity (X) FGFR4/FGFR3 (FGFR3; ratio of IC50 FGFR4/FGFR3, selectivity towards FGFR3)	SMILES
< 1 nM	B (B represents 20 ≤ multiple X<50)	1 to 10 nM	–	CC(Oc1ccc2[nH]nc(-c3cnn(C4CN(C(=O)N(C)C)C4)c3)c2c1)c1cccc2nccnc12 (stereo not shown) [Example 178, N,N-dimethyl-3-(4-(5-(1-(quinoxalin-5-yl)ethoxy)-1H-indazol-3-yl)-1H-pyrazol-1-yl)azetidine-1-carboxamide]
< 1 nM	B (B represents 20 ≤ multiple X<50)	10 to 100 nM	–	CC(Oc1ccc2[nH]nc(-c3cnn(CCCS(N)(=O)=O)c3)c2c1)c1cccc2nccnc12 (stereo not shown) [Example 179, 3-(4-(5-(1-(quinoxalin-5-yl)ethoxy)-1H-indazol-3-yl)-1H-pyrazol-1-yl)propane-1-sulfonamide]
< 1 nM	A (A represents 1 ≤ multiple X<20)	1 to 10 nM	A (A represents 1 ≤ multiple X<20)	CC(Oc1ccc2[nH]nc(-c3cnn(C)c3)c2c1)c1cccn2ncc(C#N)c12 (stereo not shown) [Example 186, 4-(1-((3-(1-methyl-1H-pyrazol-4-yl)-1H-indazol-5-yl)oxy)ethyl)py razolo[1,5-a]pyridine-3-carbonitrile]
< 1 nM	B (B represents 20 ≤ multiple X<50)	10 to 100 nM	–	Cc1cc(C(C)Oc2ccc3[nH]nc(-c4cnn(C5CN(C(=O)CO)C5)c4)c3c2)c2cccnc2c1 (stereo not shown) [Example 192, 2-hydroxy-1-(3-(4-(5-(1-(7-methylquinolin-5-yl)ethoxy)-1H-indazol-3-yl)-1-pyrazol-1-yl)azetidin-1-yl)ethan-1-one]
< 1 nM	A (A represents 1 ≤ multiple X<20)	1 to 10 nM	–	CNCC(=O)N1CC(n2cc(-c3n[nH]c4ccc(OC(C)c5cccc6nccnc56)cc34)cn2)C1 (stereo not shown) [Example 193, 2-(methylamino)-1-(3-(4-(5-(1-(quinoxalin-5-yl)ethoxy)-1H-indazol-3-yl)-1H-pyrazol-1-yl)azetidin-1-yl)ethan-1-one]
< 1 nM	B (B represents 20 ≤ multiple X<50)	10 to 100 nM	–	CC(Oc1ccc2[nH]nc(-c3cnn(C4CC(N(C)C(=O)C(C)(C)N)C4)c3)c2c1)c1cccc2nccnc12 (stereo not shown) [Example 196, 2-amino-N,2-dimethyl-N-(3-(4-(5-(1-(quinoxalin-5-yl)ethoxy)-1H-indazol-3-yl)-1H-pyrazol-1-yl)cyclobutyl)propanamide]

— patent publication EP4644383A1 (Jiangsu Yahong Meditech Co., Ltd., priority 2022, dated 2024)
